# Article PMC3851587 (Molecular and biochemical parasitology, 2013)
# Key:
# Chimera N1A = test: [3H]-adenosine uptake in transfected L. donovani cells; type: cell-based, Crithidia fasciculata; conditions: labelled compound
# Chimera N3A = test: as above; type: cell-based, Crithidia fasciculata; conditions: labelled compound
structure (smiles),measurement,setting,value
Nc1ncnc2c1ncn2[C@@H]1O[C@H](CO)[C@@H](O)[C@H]1O [adenosine],Km,Chimera N1A,0.5 ± 0.14 µM
same,Km,Chimera N3A,1.2 ± 0.16 µM
